# Reference: patent US8497083B2, “Fructosyl amino acid oxidase” (priority 2009, dated 2013)
# Columns and labels:
# [1] = molecular target: fructosyl amino acid oxidase from Phaeosphaeria nodorum (PnFPOX, SEQ ID NO: 1) variant N56A (Parastagonospora nodorum, UniProt Q0UIL6, N56A); experiment: Dehydrogenase activity kinetics (mPMS/DCIP), PnFPOX N56A mutant; format: biochemical; details: purified enzyme, 25° C., pH 7.0
# Source text: (§1) As used herein, “dehydrogenase activity” is an enzymatic activity (Vmax) of the fructosyl amino acid oxidase to catalyze oxidation of fructosyl amino acid to generate 2-keto-D-glucose and the corresponding amino acid while utilizing an electron mediator other than oxygen as an electron acceptor. The dehydrogenase activity may be assayed by measuring the amount of electrons transferred to the mediator using, for example, one of mPMS/DCIP (1-methoxy-5-methylphenazinium methylsulfate/2,6-dichloroindophenol), cPES (trifluoro-acetate-1-(3-carboxy-propoxy)-5-ethyl-phenanzinium, NA BM31—1144 (N,N-bis-(hydroxyethyl)-3-methoxynitrosoaniline hydrochloride, NA BM31—1008 (N,N-bis-hydroxyethyl-4-nitrosoaniline) and N—N-4-dimethyl-nitrosoaniline.
# (§2) As used herein in the context of the relative or quantitative activity, the dehydrogenase activity is specifically defined to be the mole amount of the substrate (fructosyl amino acid) oxidized per unit time measured by the amount of electrons transferred to the mediator at 25° C. in 10 mM PPB (pH 7.0), 0.6 mM DCIP, and 6 mM methoxy PMS (mPMS).
# Escherichia coli BL21 (DE3) cells harboring expression vectors of N1-1 FAOD (SEQ ID NO: 2) mutants were grown in 150 ml of LB medium containing 50 μg/ml kanamycin at 37° C. After reaching an A660 value of 0.6, 0.3 mM IPTG was added and incubated at 25° C. for an additional 5 hours. The cells were collected by centrifugation and washed twice with 0.85% NaCl.aq. Then, the cells were resuspended in 10 mM Potassium Phosphate Buffer (PPB) pH 7.0 and lysed by ultrasonic homogenizer. The lysate was centrifuged at 10,000×g, 4° C. for 10 min, and the supernatant was centrifuged at 50,000 rpm, 4° C. for 60 min, then the supernatant was dialyzed against 10 mM PPB (pH 7.0). The oxidase activity was assayed at 25° C. in 10 mM PPB, pH 7.0, 1.5 mM TODB, 2 U/ml horseradish peroxidase (POD), and 1.5 mM 4-aminoantipyrine (4AA) in the presence of substrates (0.2, 0.5, 0.75, 1, 2, 5 mM f-^αVal […]). The formation of quinoneimine dye was measured spectrophotometrically at 546 nm. The dehydrogenase activity was assayed at 25° C. in 10 mM PPB (pH 7.0), 0.6 mM DCIP, and 6 mM methoxy PMS (mPMS) in the presence of substrates (0.2, 0.5, 1, 2, 5 mM f-^αVal or 5 mM f-^αVal-His).
# Mutations were introduced using site-directed mutagenesis as in Example 1, and BL21 (DE3) cells were transformed with an expression vector containing wild-type or mutant PnFPOX (SEQ ID NO: 1). The cultured cells were resuspended in 10 mM PPB, pH 7.0, and lysed by sonication. The lysate was centrifuged at 10,000 g at 4° C. for 20 min, and the supernatant was centrifuged at 50,000 rpm at 4° C. for 60 min. The oxidase and dehydrogenase activities were measured as in Example 1. […]
# [2] = molecular target: T1, fructosyl amino acid oxidase from Pichia sp. N1-1 (N1-1 FAOD, SEQ ID NO: 2) variant N47A (Pichia sp. N1-1, UniProt Q3L8U0, N47A); experiment: Dehydrogenase activity kinetics (mPMS/DCIP), N1-1 FAOD N47A mutant; format: biochemical; details: mPMS/DCIP over 4AA/TODB/POD
# T1 construct: crude and purified
# T1 sequence (Q3L8U0 1-427 N47A): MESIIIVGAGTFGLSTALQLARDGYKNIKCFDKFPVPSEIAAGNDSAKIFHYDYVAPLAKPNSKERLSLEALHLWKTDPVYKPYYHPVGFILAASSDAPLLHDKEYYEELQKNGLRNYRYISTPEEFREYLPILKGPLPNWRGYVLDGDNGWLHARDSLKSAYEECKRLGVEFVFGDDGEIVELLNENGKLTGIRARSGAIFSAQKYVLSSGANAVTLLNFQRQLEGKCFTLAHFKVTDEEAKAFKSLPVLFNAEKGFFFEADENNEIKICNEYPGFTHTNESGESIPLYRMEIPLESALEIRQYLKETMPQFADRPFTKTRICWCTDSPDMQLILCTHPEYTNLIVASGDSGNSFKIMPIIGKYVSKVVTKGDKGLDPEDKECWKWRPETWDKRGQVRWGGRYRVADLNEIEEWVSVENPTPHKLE
# Source text: as §1, §2
# Escherichia coli BL21 (DE3) cells harboring expression vectors of N1-1 FAOD (SEQ ID NO: 2) mutants were grown in 150 ml of LB medium containing 50 μg/ml kanamycin at 37° C. […] The formation of quinoneimine dye was measured spectrophotometrically at 546 nm. […]
# Chain of fructosyl amino acid oxidase from Phaeosphaeria nodorum (PnFPOX, SEQ ID NO: 1) variant N56A (Q0UIL6 whole entry N56A): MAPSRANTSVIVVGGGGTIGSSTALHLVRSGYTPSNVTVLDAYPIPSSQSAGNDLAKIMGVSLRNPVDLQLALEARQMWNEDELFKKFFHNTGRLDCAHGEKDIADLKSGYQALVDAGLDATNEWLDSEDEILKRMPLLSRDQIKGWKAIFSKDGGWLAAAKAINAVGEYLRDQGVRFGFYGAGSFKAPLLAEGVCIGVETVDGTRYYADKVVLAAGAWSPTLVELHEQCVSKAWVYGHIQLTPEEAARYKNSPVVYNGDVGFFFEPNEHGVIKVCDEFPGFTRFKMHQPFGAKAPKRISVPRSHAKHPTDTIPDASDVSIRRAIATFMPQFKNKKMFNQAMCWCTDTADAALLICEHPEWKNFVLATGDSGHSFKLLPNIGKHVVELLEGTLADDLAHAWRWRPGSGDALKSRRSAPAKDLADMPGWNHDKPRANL
compound,measurement,setting,value
"CC(C)[C@H](NCC1(O)OC[C@@H](O)[C@@H](O)[C@@H]1O)C(=O)O (stereo partly drawn) [f-αVal, fructosyl valine]",Vmax,[1],95.1 U/mg
same,B/A (Vmax dehydrogenase/Vmax oxidase),[2]; crude preparation,7.5
same,B/A (Vmax dehydrogenase/Vmax oxidase),[2]; purified enzyme,4.3
